Results: patent publication US20060025328A1, “Compositions suitable for controlled release of the hormone GnRH and its analogs” (priority 1997, published 2006)

Tested on: LH
Experiment: LH concentrations in synchronized dairy heifers, Example 6
Format: in vivo
Settings: GnRH (100 μg) positive control
Protocol: Experimental formulations were prepared by weighing and mixing SAIB, solvent and deslorelin acetate (DA) to give a final concentration of 25 μg/ml. The SAIB: diluting solvent composition was:SAIB/propylene carbonate 70:30 w/w). Experimental DA Treatments were sterilized using gamma radiation. 30 healthy cyclic dairy heifers weighing about 750-800 lbs (340-364 kg) were used. This study was designed as a parallel group design. All heifers were synchronized using pretreatment with 100 μg GnRH (Cystorellin, Merial, Ltd., Islin, NJ) on day -7 followed by 25 mg PGF2α (Lutalyse Pharmacia-Upjohn Co. Kalamazoo, Mich.) treatment one week later. Forty eight hours after PGF2α treatment heifers received saline (negative controls), Cystorellin ([…]; positive controls) or Deslorelin-SABER (DA-slow delivery preparation; at 12.5, 25, 50 or 100 μg intra-muscular). Blood samples were collected by veni-puncture through shaved and aseptic-swabbed sites at -48, 0, 0.5, 1, 2, 4, 6, 12, 18, 24, 36, and 48 hours after treatment for LH analysis. […] were randomly assigned to one of 6 blinded treatment groups (n=5/group) to avoid interpretation bias.

GnRH: GnRH (Cystorellin, Merial, Ltd.), positive control (QHWSYGLRPG; Gonadoliberin-1; UniProt P01148 24-33, looked up)
LH concentration at peak (average): 22.3 ng/mL
time of peak LH post-treatment: 1 h
